# In patent US20110009351A1, “SCREENING ASSAY TO IDENTIFY CORRECTORS OF PROTEIN TRAFFICKING DEFECTS” (Traffick Therepeutics Inc., priority 2007, published 2011):
# Where a name gives a salt, the structure may show the parent alone.
# What was measured:
# Format in all cases: cell-based
# ΔF508-CFTR [1] = target: T1, ΔF508-CFTR (Homo sapiens, UniProt P13569, DEL508-508); assay: immunoblot and densitometry of mature band C, BHK cells expressing ΔF508-CFTR; parameters: which was then ligated into full length pNUT-CFTR linearized using Hpa1 and Pml1; expressed in transfected cells; conditions: 10 μM, 24 h
# T1 sequence (P13569 with tags, fused parts or gaps DEL508-508): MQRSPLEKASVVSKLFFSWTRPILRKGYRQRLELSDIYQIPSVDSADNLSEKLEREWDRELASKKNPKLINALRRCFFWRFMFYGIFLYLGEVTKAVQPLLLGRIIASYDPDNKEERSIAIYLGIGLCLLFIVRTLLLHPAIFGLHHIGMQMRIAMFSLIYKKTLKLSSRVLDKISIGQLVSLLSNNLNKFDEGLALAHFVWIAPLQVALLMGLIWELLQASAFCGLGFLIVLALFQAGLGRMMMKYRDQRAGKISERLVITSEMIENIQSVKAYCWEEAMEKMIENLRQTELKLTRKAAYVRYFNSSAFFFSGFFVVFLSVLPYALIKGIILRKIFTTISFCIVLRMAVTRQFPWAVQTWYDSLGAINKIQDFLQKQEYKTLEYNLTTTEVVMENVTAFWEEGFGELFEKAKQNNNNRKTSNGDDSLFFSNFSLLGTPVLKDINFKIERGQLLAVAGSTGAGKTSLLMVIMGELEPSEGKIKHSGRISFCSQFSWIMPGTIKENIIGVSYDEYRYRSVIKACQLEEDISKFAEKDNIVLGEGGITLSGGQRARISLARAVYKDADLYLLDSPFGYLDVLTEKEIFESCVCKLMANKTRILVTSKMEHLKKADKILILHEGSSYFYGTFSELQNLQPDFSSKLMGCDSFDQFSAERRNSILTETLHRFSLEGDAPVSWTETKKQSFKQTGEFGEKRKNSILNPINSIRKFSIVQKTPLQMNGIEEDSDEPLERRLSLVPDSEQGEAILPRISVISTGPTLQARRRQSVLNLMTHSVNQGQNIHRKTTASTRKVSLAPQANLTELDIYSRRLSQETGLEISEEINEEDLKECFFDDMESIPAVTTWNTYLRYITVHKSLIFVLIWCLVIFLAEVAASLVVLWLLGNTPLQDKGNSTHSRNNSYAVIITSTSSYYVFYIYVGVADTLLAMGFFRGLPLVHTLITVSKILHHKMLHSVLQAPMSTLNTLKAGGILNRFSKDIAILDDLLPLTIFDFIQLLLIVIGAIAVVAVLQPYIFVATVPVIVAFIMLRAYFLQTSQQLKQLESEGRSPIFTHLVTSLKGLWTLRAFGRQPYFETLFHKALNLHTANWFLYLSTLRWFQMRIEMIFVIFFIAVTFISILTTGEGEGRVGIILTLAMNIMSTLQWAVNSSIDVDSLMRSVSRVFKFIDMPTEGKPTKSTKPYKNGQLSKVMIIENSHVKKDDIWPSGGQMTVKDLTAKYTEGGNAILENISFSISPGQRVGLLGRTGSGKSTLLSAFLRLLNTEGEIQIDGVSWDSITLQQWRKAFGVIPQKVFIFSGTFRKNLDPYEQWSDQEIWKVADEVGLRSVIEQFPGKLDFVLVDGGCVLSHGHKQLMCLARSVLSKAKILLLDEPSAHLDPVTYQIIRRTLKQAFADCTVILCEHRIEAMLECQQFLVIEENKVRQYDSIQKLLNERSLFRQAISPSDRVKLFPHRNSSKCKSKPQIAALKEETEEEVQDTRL
# Procedure: Cell lysates were quantitated by Bradford assay (BioRad) and separated by SDS-PAGE (6% polyacrylamide gels) and analyzed by Western blotting. Western blots were blocked using 5% skimmed milk in PBS, then probed overnight at 4° C. with a primary anti-CFTR antibody at a dilution of 1:1000 monoclonal mouse antibody (clone M3A7, Chemicon). The blots were washed four times in PBS before the addition of the secondary HRP-conjugated anti-mouse antibody, at a dilution of 1:5000 (Amersham) for one hour at room temperature. The blots were washed five times in PBS and probed for chemiluminescence (Pierce). All samples were run with equal protein loading as determined using the Bradford assay (Biorad). Densitometry of the immunoblots was performed using the ImageJ program (National Institutes of Health).
# Total protein was quantified in cell lysates using the Bradford assay (BioRad, Hercules, Calif.), separated using SDS-PAGE (6% polyacrylamide gels), and analyzed by Western blotting as described previously (Robert et al., 2007). Western blots were blocked with 5% skimmed milk in PBS and probed overnight at 4° C. with a monoclonal primary anti-CFTR antibody (clone M3A7, Chemicon, Temecula, Calif.) diluted 1:1000. The blots were washed four times in PBS before adding the secondary HRP-conjugated anti-mouse antibody at a dilution of 1:5000 (Amersham, Piscataway, N.J.) for one hour at room temperature, then washed again five times in PBS and visualized using chemiluminescence (Pierce, Rockford, Ill.). The relative intensity of each CFTR glycoform (band B or band C) was estimated by densitometry using the ImageJ software and reported as a percentage of the total CFTR in the same lane (i.e. B+C).
# ΔF508-CFTR [2] = target: T1, ΔF508-CFTR; assay: iodide efflux assay in BHK cells expressing ΔF508-CFTR; parameters: which was then ligated into full length pNUT-CFTR linearized using Hpa1 and Pml1; expressed in transfected cells; conditions: 24 h
# Procedure: Experiments were performed by hand or with a robotic liquid handling system (BioRobot 8000, Qiagen, USA) using Qiagen 4.1 software. Cells were cultured in 24-well plates until they reached confluence in order to perform parallel experiments and comparison analysis. After treatment (or not) with a test compound, medium in each well was replaced with 1 ml of iodide loading buffer (in mM: 136 NaI, 3 KNO3, 2 Ca(NO3)2, 11 glucose and 20 Hepes pH 7.4) for 1 hour at 37° C. to permit the I′ to reach equilibrium. At the beginning of each experiment, the loading buffer was removed by aspiration and cells were washed eight times with efflux buffer (same as loading buffer except that NaI was replaced with 136 mM NaNO3) to remove extracellular I^− in each well. The loss of intracellular I^− was determined by removing the medium and replacing it with fresh efflux buffer every 1 min for up to 11 min. The first four aliquots were recovered at 1-minute intervals in an empty 24-well plate and used to establish a stable baseline in efflux buffer alone. A stimulation buffer (efflux buffer containing 50 μM genistein+10 μM forskolin) was then added and sampling continued with replacement by stimulation buffer. The iodide concentration of each aliquot was determined using an iodide-sensitive electrode (Orion Research Inc., Boston, Mass., USA or Ecomet) and converted to iodide content (i.e. the amount of iodide released during the 1 min interval). Curves were constructed by plotting concentration versus time. Data are presented as means±SEM.
# Iodide effluxes were performed using a robotic liquid handling system (BioRobot 8000, Qiagen, Valencia, Calif.) and Qiagen 4.1 software. Cells were cultured to confluence in 24-well plates. After treatment (or not) with a test compound, the medium in each well was replaced with 1 ml of iodide loading buffer: 136 mM NaI, 3 mM KNO3, 2 mM Ca(NO3)2, 11 mM glucose, 20 mM Hepes, pH 7.4 with NaOH) and incubated for 1 h at 37° C. At the beginning of each experiment, the loading buffer was removed by aspiration and cells were washed eight times with 300 μl efflux buffer (same as loading buffer except that NaI was replaced with 136 mM NaNO3) to remove extracellular I^−. Efflux was measured by replacing the medium with 300 μl fresh efflux buffer at 1 min intervals for up to 11 min. The first four aliquots were used to establish a stable baseline, then buffer containing 10 μM forskolin+50 μM genistein was used to stimulate CFTR activity. Iodide concentration was measured in each aliquot (300 μl) using an iodide-sensitive electrode (Orion Research Inc., Boston, Mass.). Relative iodide efflux rate was calculated using the difference between maximum (peak) iodide concentration during stimulation and minimum iodide concentration before stimulation (in μM/min). […]
# ΔF508-CFTR [3] = target: T1, ΔF508-CFTR; assay: iodide efflux assay in CFBE41o− airway epithelial cells; parameters: expressed in transfected cells; host or cells: CFBE41o- (ΔF508/ΔF508) transduced with ΔF508-CFTR, TranzVector lentivirus, provided by J. P. Clancy; conditions: compared with BHK
# Procedure: Experiments were performed by hand or with a robotic liquid handling system (BioRobot 8000, Qiagen, USA) using Qiagen 4.1 software. Cells were cultured in 24-well plates until they reached confluence in order to perform parallel experiments and comparison analysis. After treatment (or not) with a test compound, medium in each well was replaced with 1 ml of iodide loading buffer (in mM: 136 NaI, 3 KNO3, 2 Ca(NO3)2, 11 glucose and 20 Hepes pH 7.4) for 1 hour at 37° C. to permit the I′ to reach equilibrium. […] The loss of intracellular I^− was determined by removing the medium and replacing it with fresh efflux buffer every 1 min for up to 11 min. […] The iodide concentration of each aliquot was determined using an iodide-sensitive electrode (Orion Research Inc., Boston, Mass., USA or Ecomet) and converted to iodide content (i.e. the amount of iodide released during the 1 min interval). […]
# Iodide effluxes were performed using a robotic liquid handling system (BioRobot 8000, Qiagen, Valencia, Calif.) and Qiagen 4.1 software. […] Efflux was measured by replacing the medium with 300 μl fresh efflux buffer at 1 min intervals for up to 11 min. […] Iodide concentration was measured in each aliquot (300 μl) using an iodide-sensitive electrode (Orion Research Inc., Boston, Mass.). […]
compound,measurement,setting,value
"O=C(OCC(O)CO)c1ccccc1Nc1ccnc2cc(Cl)ccc12 (centres unmarked) [Glafenine hydrochloride, 2-[(7-chloro-4-quinolinyl)amino]benzoic acid 2,3-dihydroxypropyl ester]",band C glycoform as share of the CFTR signal (band B+band C),ΔF508-CFTR [1],approximately 38%
same,increase of band C glycoform compared to untreated control,ΔF508-CFTR [1],28.4%
same,increase of cAMP-stimulated iodide efflux response,"ΔF508-CFTR [2]; 10 μM, 10 μM forskolin+50 μM genistein, versus vehicle",3.3 fold
same,concentration required for significant restoration of ΔF508-CFTR function,"ΔF508-CFTR [2]; iodide efflux, BHK",1 to 10 µM
same,rescue of iodide efflux,ΔF508-CFTR [3],more striking
